Data as given in BindingDB's records for doi:10.1021/acs.jmedchem.9b00963 (Hong Kong Polytechnic University, 2019).

Columns and labels:
[1] = Inhibition of P-gp (unknown origin) expressed in human LCC6MDR cells assessed as reversal of paclitaxel resistance after 5 days by MTS/PMS assay
[2] = Inhibition of P-gp (unknown origin) expressed in human LCC6MDR cells assessed as potentiation of mitoxantrone-induced cytotoxicity after 5 days by MTS/PMS assay
[3] = Inhibition of MRP1 in human 2008/MRP1 cells assessed as reduction in cell viability after 5 days by MTS/PMS assay
[4] = Inhibition of MDR in human LCC6MDR cells assessed as reduction in cell viability after 5 days by MTS/PMS assay
[5] = Inhibition of BCRP (unknown origin) transfected in human HEK293/R2 cells assessed as potentiation of topotecan-induced cytotoxicity measured as topotecan IC50 at 1 uM (Rvb = 531.5 +/- 180 nM)
[6] = Inhibition of BCRP in human MCF7/MX100 cells assessed as reversal of topotecan resistance after 5 days by MTS/PMS assay
[7] = Inhibition of BCRP (unknown origin) transfected in HEK293/R2 cells assessed as reversal of topotecan resistance after 5 days by MTS/PMS assay
[8] = Inhibition of BCRP (unknown origin) expressed in human HEK293/R2 cells assessed as potentiation of mitoxantrone-induced cytotoxicity after 5 days by MTS/PMS assay

| Compound | EC50 [1] [nM] | EC50 [6] [nM] | EC50 [7] [nM] | EC50 [2] [nM] | IC50 [3] [nM] | IC50 [4] [nM] | IC50 [5] [nM] | EC50 [8] [nM] |
| --- | --- | --- | --- | --- | --- | --- | --- | --- |
| COc1ccc2c3c([nH]c2c1)[C@H](CC(C)C)N1C(=O)[C@H](CCC(=O)OC(C)(C)C)NC(=O)[C@@H]1C3 [Ko143] | 1060 |  |  | 943 |  |  |  |  |
| O=C1c2c(O)ccc(O)c2C(=O)c2c(NCCNCCO)ccc(NCCNCCO)c21 [SMR000058480] |  |  |  |  | 28 | 1500 |  |  |
| COC(=O)c1cccc(COc2c(-c3ccc(OCCOCCn4cc(COCc5cn(CCOCCOc6ccc(-c7oc8ccccc8c(=O)c7OCc7cccc(C(=O)OC)c7)cc6)nn5)nn4)cc3)oc3ccccc3c2=O)c1 | > 1000 | 2.1 | 4.2 |  |  |  | 20 |  |
| COC(=O)c1cccc(COc2c(-c3ccc(OCCOCCn4cc(-c5cccc(-c6cn(CCOCCOc7ccc(-c8oc9ccccc9c(=O)c8OCc8cccc(C(=O)OC)c8)cc7)nn6)c5)nn4)cc3)oc3ccccc3c2=O)c1 | > 1000 | 1.1 | 2.2 | > 2000 |  |  | 25 | 11 |
| O=c1c(OCc2ccccc2)c(-c2ccc(OCCOCCOCCn3cc(CN(Cc4ccccc4)Cc4cn(CCOCCOCCOc5ccc(-c6oc7ccccc7c(=O)c6OCc6ccccc6)cc5)nn4)nn3)cc2)oc2ccccc12 | 560 | 26 | 36 |  |  |  |  |  |
| COC(=O)c1cccc(COc2c(-c3ccc(OCCOCCn4cc(-c5ccc(-c6cn(CCOCCOc7ccc(-c8oc9ccccc9c(=O)c8OCc8cccc(C(=O)OC)c8)cc7)nn6)cc5)nn4)cc3)oc3ccccc3c2=O)c1 | > 1000 | 27 | 14 |  |  |  |  |  |
| COC(=O)c1cccc(COc2c(-c3ccc(OCCOCCn4cc(CN5CCN(Cc6cn(CCOCCOc7ccc(-c8oc9ccccc9c(=O)c8OCc8cccc(C(=O)OC)c8)cc7)nn6)CC5)nn4)cc3)oc3ccccc3c2=O)c1 | 683 | 19 | 18 |  |  |  |  |  |
| COC(=O)c1cccc(COc2c(-c3ccc(OCCOCCn4cc(CN5CCCN(Cc6cn(CCOCCOc7ccc(-c8oc9ccccc9c(=O)c8OCc8cccc(C(=O)OC)c8)cc7)nn6)CC5)nn4)cc3)oc3ccccc3c2=O)c1 | 573 | 55 | 108 |  |  |  |  |  |
| COC(=O)c1cccc(COc2c(-c3ccc(OCCOCCn4cc(CN(Cc5ccccc5)Cc5cn(CCOCCOc6ccc(-c7oc8ccccc8c(=O)c7OCc7cccc(C(=O)OC)c7)cc6)nn5)nn4)cc3)oc3ccccc3c2=O)c1 | > 1000 | 3.3 | 5.3 |  |  |  | 15 |  |
| COC(=O)c1cccc(COc2c(-c3ccc(OCCOCCOCCn4cc(CN5CCN(Cc6cn(CCOCCOCCOc7ccc(-c8oc9ccccc9c(=O)c8OCc8cccc(C(=O)OC)c8)cc7)nn6)CC5)nn4)cc3)oc3ccccc3c2=O)c1 | > 1000 | 40 | 31 |  |  |  |  |  |
| COC(=O)c1cccc(COc2c(-c3ccc(OCCOCCOCCn4cc(CCCOc5ccc6c(=O)cc(-c7ccccc7)oc6c5)nn4)cc3)oc3ccccc3c2=O)c1 | 414 | 7 | 3.5 |  |  |  |  |  |
| Cc1ccc2oc(-c3ccc(OCCCCc4cn(CCN(CCOc5ccc6c(=O)cc(-c7ccccc7)oc6c5)Cc5ccccc5)nn4)cc3)cc(=O)c2c1 | > 1000 | 372 | 543 |  |  |  |  |  |
| O=c1cc(-c2ccccc2)oc2cc(OCCOCc3cn(CCOCCOCCOc4ccc(-c5oc6ccccc6c(=O)c5OCc5ccccc5)cc4)nn3)ccc12 | 383 | 25 | 38 |  |  |  |  |  |
| COC(=O)c1cccc(COc2c(-c3ccc(OCCOCCOCCn4cc(CN(Cc5ccccc5)Cc5cn(CCOCCOCCOc6ccc(-c7oc8ccccc8c(=O)c7OCc7cccc(C(=O)OC)c7)cc6)nn5)nn4)cc3)oc3ccccc3c2=O)c1 | > 1000 | 4.3 | 3.3 |  |  |  |  |  |
| O=c1cc(-c2ccccc2)oc2cc(OCCn3cc(CN(Cc4ccccc4)Cc4cn(CCOc5ccc6c(=O)cc(-c7ccccc7)oc6c5)nn4)nn3)ccc12 | > 1000 | 485 | 243 |  |  |  |  |  |
| COC(=O)c1cccc(COc2c(-c3ccc(OCCOCCOCCn4cc(CN(Cc5cn(CCOCCOCCOc6ccc(-c7oc8ccccc8c(=O)c7OCc7cccc(C(=O)OC)c7)cc6)nn5)c5ccccc5)nn4)cc3)oc3ccccc3c2=O)c1 | > 1000 | 3.9 | 5.8 |  |  |  |  |  |
| OCCOCCn1cc(CN(Cc2ccccc2)Cc2cn(CCOCCO)nn2)nn1 | > 1000 | > 1000 | > 1000 |  |  |  |  |  |
| COC(=O)c1cccc(COc2c(-c3ccc(OCCOCCn4cc(CCCc5cn(CCOCCOc6ccc(-c7oc8ccccc8c(=O)c7OCc7cccc(C(=O)OC)c7)cc6)nn5)nn4)cc3)oc3ccccc3c2=O)c1 | > 1000 | 2.4 | 6.1 |  |  |  | 19 |  |
| O=c1cc(-c2ccccc2)oc2cc(OCCCCc3cn(CCOCCOCCOc4ccc(-c5oc6ccccc6c(=O)c5OCc5ccccc5)cc4)nn3)ccc12 | 278 | 16 | 35 |  |  |  |  |  |
| COC(=O)c1cccc(COc2c(-c3ccc(OCCOCCn4cc(CN(Cc5ccncc5)Cc5cn(CCOCCOc6ccc(-c7oc8ccccc8c(=O)c7OCc7cccc(C(=O)OC)c7)cc6)nn5)nn4)cc3)oc3ccccc3c2=O)c1 | > 1000 | 25 | 49 |  |  |  |  |  |

Continued, in another order:

| EC50 [1] [nM] | EC50 [6] [nM] | EC50 [7] [nM] | Compound | EC50 [2] [nM] | IC50 [3] [nM] | IC50 [4] [nM] | IC50 [5] [nM] | EC50 [8] [nM] |
| --- | --- | --- | --- | --- | --- | --- | --- | --- |
| 210 | 16 | 55 | Cc1ccc2oc(-c3ccc(OCCOCCOCCn4cc(CN(CCOc5ccc6c(=O)cc(-c7ccccc7)oc6c5)Cc5ccccc5)nn4)cc3)cc(=O)c2c1 |  |  |  |  |  |
| 350 | 185 | 35 | Cc1ccc2oc(-c3ccc(OCCOCCOCCn4cc(CCCOc5ccc6c(=O)cc(-c7ccccc7)oc6c5)nn4)cc3)cc(=O)c2c1 |  |  |  |  |  |
| 773 | 145 | 90 | Cc1ccc2oc(-c3ccc(OCCOCCOCCn4cc(COCCOc5ccc6c(=O)cc(-c7ccccc7)oc6c5)nn4)cc3)cc(=O)c2c1 |  |  |  |  |  |
| > 1000 | 308 | 195 | O=c1cc(-c2ccccc2)oc2cc(OCCOCCn3cc(COCCOc4ccc5c(=O)cc(-c6ccccc6)oc5c4)nn3)ccc12 |  |  |  |  |  |
| 370 | 33 | 67 | Cc1ccc2oc(-c3ccc(OCCCCc4cn(CCOCCOc5ccc(-c6cc(=O)c7ccccc7o6)cc5)nn4)cc3)cc(=O)c2c1 |  |  |  |  |  |
| 526 | 230 | 54 | Cc1ccc2oc(-c3ccc(OCCCCc4cn(CCOCCOCCOc5ccc(-c6cc(=O)c7cc(C)ccc7o6)cc5)nn4)cc3)cc(=O)c2c1 |  |  |  |  |  |
| 198 | 46 | 33 | Cc1ccc2oc(-c3ccc(OCCOCCOCCn4cc(CCCCOc5ccc6c(=O)cc(-c7ccccc7)oc6c5)nn4)cc3)cc(=O)c2c1 |  |  |  |  |  |
| 69 | 7.9 | 6.4 | O=c1cc(-c2ccc(OCCCc3cn(CCOCCOc4ccc5c(=O)cc(-c6ccccc6)oc5c4)nn3)cc2)oc2cc(F)ccc12 |  |  |  |  |  |
| 321 | 25 | 52 | O=c1cc(-c2ccc(OCCOCCn3cc(CCCCOc4ccc5c(=O)cc(-c6ccccc6)oc5c4)nn3)cc2)oc2ccccc12 |  |  |  |  |  |
| 334 | 20 | 27 | O=c1cc(-c2ccccc2)oc2cc(OCCN(Cc3ccccc3)Cc3cn(CCOCCOCCOc4ccc(-c5cc(=O)c6cc(F)ccc6o5)cc4)nn3)ccc12 |  |  |  |  |  |
| 255 | 7.4 | 24 | O=c1cc(-c2ccc(OCCOCCOCCn3cc(CCCOc4ccc(-c5cc(=O)c6ccc(F)cc6o5)cc4)nn3)cc2)oc2ccccc12 |  |  |  |  |  |
| 204 | 223 | 60 | Cc1ccc2oc(-c3ccc(OCCCCc4cn(CCOc5ccc6c(=O)cc(-c7ccccc7)oc6c5)nn4)cc3)cc(=O)c2c1 |  |  |  |  |  |
| 963 | 340 | 303 | O=c1cc(-c2ccc(OCCOCCOCCn3cc(COCCOc4ccc5c(=O)cc(-c6ccccc6)oc5c4)nn3)cc2)oc2ccccc12 |  |  |  |  |  |
| 300 | 30 | 67 | O=c1cc(-c2ccc(OCCOCCn3cc(CCCOc4ccc5c(=O)cc(-c6ccccc6)oc5c4)nn3)cc2)oc2ccccc12 |  |  |  |  |  |
| 328 | 98 | 38 | O=c1cc(-c2ccccc2)oc2cc(OCCCc3cn(CCOCCOCCOc4ccc(-c5cc(=O)c6cc(F)ccc6o5)cc4)nn3)ccc12 |  |  |  |  |  |
| 747 | 320 | 58 | Cc1ccc2oc(-c3ccc(OCCCCc4cn(CCOCCOCCOc5ccc(-c6cc(=O)c7cc(F)ccc7o6)cc5)nn4)cc3)cc(=O)c2c1 |  |  |  |  |  |
| 928 | 59 | 145 | O=c1cc(-c2ccccc2)oc2cc(OCCOCCOCCn3cc(COCCOc4ccc5c(=O)cc(-c6ccccc6)oc5c4)nn3)ccc12 |  |  |  |  |  |
| > 1000 | 160 | 285 | Cc1ccc2oc(-c3ccc(OCCCCc4cn(CCOCCOCCOc5ccc(-c6cc(=O)c7ccccc7o6)cc5)nn4)cc3)cc(=O)c2c1 |  |  |  |  |  |
| 275 | 17 | 37 | O=c1cc(-c2ccc(OCCOCCOCCn3cc(CN(CCOc4ccc5c(=O)cc(-c6ccccc6)oc5c4)Cc4ccccc4)nn3)cc2)oc2ccccc12 |  |  |  |  |  |
